Data reported in EP0768085A1, “ANTIBACTERIAL AGENT” (DAIICHI PHARMACEUTICAL CO., LTD., priority 1994, dated 1996).
Values after ≈ are worked out from the molar mass of the structure shown.

Key:
Format in all cases: cell-based
[1] = test system: Staphylococcus aureus 209-P; test: Antibacterial activity (IC), Mueller-Hinton broth, 96-well microplate (Example 4, Table 39); details: 37°C, 18 hours
Protocol: (§1) A suitable amount of a sample was dissolved in dimethylsulfoxide (DMSO), and the resultant solution was diluted with the same amount of sterilized distilled water to prepare a bulk sample of 1,000 µg/ml. Mueller-Hinton broth (product of DIFCO) was dispensed into each well of 96-well microplate. Thereafter, the bulk specimen was added to the first well of a row, and successively diluted (10-fold each time) with sterilized distilled water. Separately, a bacterial cell suspension for the test (Staphylococcus aureus 209-P) which had been cultured in the above-mentioned broth overnight at 37°C was inoculated to each well so that the final inoculation amount of 10^6 CFU/ml was attained. The final concentrations of the samples were 100, 10, and 1 µg/ml.
(§2) The antibacterial action was evaluated by the inhibitory concentration (hereinafter abbreviated as IC) at which propagation of the bacteria cultured at 37°C for 18 hours was inhibited. Inhibition was determined by the turbidity of the medium. The expressions "IC≤100", "≤10", and "≤1" indicate that MIC-equivalent values obtained at the succesive […] dilution of the sample are 100-10 µg/ml, 10-1 µg/ml, and not more than 1 µg/ml, respectively. […] (In the subsequent Examples, the same rule applies correspondingly.) Table 39

[2] = test system: Staphylococcus aureus TI-1; test: Antibacterial activity (IC), broth microplate as in Example 4 (Example 5, Table 40); details: TI1, 18 h
Protocol: as §1, §2
In a manner similar to that described in Example 4, antibacterial activity of the invention compound was determined. The bacterium used for the test was Staphylococcus aureus TI-1.

[3] = test system: Pasteurella multocida (Kobe-6); test: Antibacterial activity (IC), broth microplate as in Example 4 (Example 6, Table 41); details: 18 h, origin pig
Protocol: as §1, §2
In a manner similar to that described in Example 4, antibacterial activity of the invention compound was determined. The bacterium used for the test was Pasteurella Kobe-6 (origin: pig; Pasteurella multocida).

[4] = test system: Bordetella bronchiseptica (SM2-4); test: Antibacterial activity (IC), broth microplate as in Example 4 (Example 7, Table 42); details: 18 h
Protocol: as §1, §2
In a manner similar to that described in Example 4, antibacterial activity of the invention compound was determined. The bacterium used for the test was Bordetella bronchiseptica (SM2-4).

[5] = test system: methicillin-resistant Staphylococcus aureus (MRSA) isolated from humans; test: Antibacterial activity (IC), Mueller-Hinton agar containing the sample (Example 8, Table 43); details: Staphylococcus aureus, MRSA, 18 h
Protocol: as §2
(§3) A suitable amount of a sample was dissolved in dimethylsulfoxide (DMSO), after which the resulting solution was diluted with the same amount of sterilized distilled water to prepare a bulk sample of 1,000 µg/ml. Separately, a bacterial liquid for the test (methicillin-resistant Staphylococcus aureus (MRSA) isolated from humans) which had been cultured in Mueller-Hinton broth (product of DIFCO) was prepared and inoculated to a Mueller-Hinton agar (product of DIFCO) containing the sample so that the final inoculation amount of 10^6 CFU/ml was achieved. The final concentrations of the samples were 100, 10, and 1 µg/ml.
(§4) After culturing at 37°C for 18 hours, the antibacterial activity was evaluated in terms of IC in a manner similar to that described in Example 4.

[6] = test system: Staphylococcus aureus (209-P); test: Antibacterial activity (IC), agar as in Example 8 (Example 15, Table 48); details: 18 h
Outline: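 Agar dilution with Mueller-Hinton agar containing sample at final 100, 10 and 1 µg/ml, inoculated to 10^6 CFU/ml. Incubated at 37°C for 18 h, growth inhibition judged by medium turbidity. IC bands at successive 2-fold dilution: 100-10, 10-1, or ≤1 µg/ml.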

[7] = test system: Streptococcus aureus (TI-1); test: Antibacterial activity (IC), agar as in Example 8 (Example 16, Table 49); details: 18 h
Outline: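 Broth-grown […] aureus (TI-1) inoculated onto Mueller-Hinton agar containing compound, per the MRSA method; DMSO/water dilutions at final 100, 10 and 1 µg/ml, 10^6 CFU/ml inoculum. After 18 h at 37°C, growth inhibition judged by turbidity; IC reported as bands (100-10, 10-1, ≤1 µg/ml).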

[8] = test system: Pasteurella multocida (Kobe-6); test: Antibacterial activity (IC), agar as in Example 8 (Example 17, Table 50); details: 18 h, origin pig
Outline: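 Agar dilution on Mueller-Hinton agar with compound at 100, 10 and 1 µg/ml, inoculated at 10^6 CFU/ml with pig-origin strain Kobe-6. After 18 h at 37 °C, IC scored from turbidity and reported as a band (≤100, ≤10, ≤1 µg/ml).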

[9] = test system: methicillin-resistant Staphylococcus aureus (MRSA) from humans; test: Antibacterial activity (IC), agar as in Example 8 (Example 19, Table 52); details: 18 h
Protocol: as §2, §3, §4
In a manner similar to that described in Example 8, antibacterial activity of a variety of ketonitrile derivatives shown in Table 52 was measured. The bacterium used for the test was methicillin-resistant Staphylococcus aureus (MRSA) from humans.

Pasteurella from fish = test: Antibacterial activity (IC), agar as in Example 8, media with 1.5% NaCl, 25°C (Example 20, Tables 53-55)
Outline: (§5)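 Growth inhibition was scored by turbidity after culture at 25°C, with IC bands set from 2-fold-dilution MIC-equivalents. Samples were tested at final 100, 10 and 1 µg/ml in Mueller-Hinton agar with 1.5% NaCl, seeded with 10^6 CFU/ml of the fish isolates.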

Enterococcus from fish = test: as above
Outline: as §5

SMILES: COc1cccc(C(C#N)C(=O)C(C)Oc2ccc(Oc3ncc(C(F)(F)F)cc3Cl)cc2)c1 (stereo not shown) [compound 17]
- MIC [1]: 10 to 100 µg/mL (≈ 20.4 to 204 µM)
- MIC [2]: 10 to 100 µg/mL (≈ 20.4 to 204 µM)
- MIC [3]: 10 to 100 µg/mL (≈ 20.4 to 204 µM)

SMILES: CC(Oc1ccc(Oc2ncc(Cl)cc2Cl)cc1)C(=O)C(C#N)c1nc(Cl)cc(Cl)n1 (stereo not shown) [compound 20]
- MIC [1]: 10 to 100 µg/mL (≈ 20.1 to 201 µM)
- MIC [2]: 1 to 10 µg/mL (≈ 2.01 to 20.1 µM)
- MIC [3]: 10 to 100 µg/mL (≈ 20.1 to 201 µM)

SMILES: CC(Oc1ccc(Oc2ccc(C(F)(F)F)cc2Cl)cc1)C(=O)C(C#N)c1nc(Cl)cc(Cl)n1 (stereo not shown) [compound 22]
- MIC [1]: 1 to 10 µg/mL (≈ 1.88 to 18.8 µM)
- MIC [2]: 1 to 10 µg/mL (≈ 1.88 to 18.8 µM)
- MIC [3]: 10 to 100 µg/mL (≈ 18.8 to 188 µM)

SMILES: CC(Oc1ccc(Oc2ncc(C(F)(F)F)cc2Cl)cc1)C(=O)C(C#N)c1ccc(F)c(F)c1 (stereo not shown) [compound 27]
- MIC [1]: 1 to 10 µg/mL (≈ 2.01 to 20.1 µM)
- MIC [2]: 1 to 10 µg/mL (≈ 2.01 to 20.1 µM)
- MIC [3]: 10 to 100 µg/mL (≈ 20.1 to 201 µM)

SMILES: Cc1cc(OC(C)C(=O)C(C#N)c2ccc(Cl)c(Cl)c2)ccc1Oc1ccc(C(F)(F)F)cc1Cl (stereo not shown) [compound 44]
- MIC [1]: ≤ 1 µg/mL
- MIC [4]: 10 to 100 µg/mL (≈ 18.4 to 184 µM)
- MIC [2]: ≤ 1 µg/mL
- MIC ([5]; MRSA strain 891179, 37°C): ≤ 1 µg/mL
- MIC ([5]; MRSA strain 891185, 37°C): ≤ 1 µg/mL
- MIC ([5]; MRSA strain 891187, 37°C): ≤ 1 µg/mL
- MIC ([5]; MRSA strain 891192, 37°C): ≤ 1 µg/mL
- MIC ([5]; MRSA strain 900048, 37°C): ≤ 1 µg/mL
- MIC ([5]; MRSA strain 900056, 37°C): ≤ 1 µg/mL
- MIC [3]: 1 to 10 µg/mL (≈ 1.84 to 18.4 µM)

SMILES: Cc1cc(OC(C)C(=O)C(C#N)c2cccc(Br)c2)ccc1Oc1ccc(C(F)(F)F)cc1Cl (stereo not shown) [compound 45]
- MIC [1]: 1 to 10 µg/mL (≈ 1.81 to 18.1 µM)
- MIC [4]: 10 to 100 µg/mL (≈ 18.1 to 181 µM)
- MIC [2]: ≤ 1 µg/mL
- MIC ([5]; MRSA strain 891179, 37°C): 1 to 10 µg/mL (≈ 1.81 to 18.1 µM)
- MIC ([5]; MRSA strain 891185, 37°C): 1 to 10 µg/mL (≈ 1.81 to 18.1 µM)
- MIC ([5]; MRSA strain 891187, 37°C): 1 to 10 µg/mL (≈ 1.81 to 18.1 µM)
- MIC ([5]; MRSA strain 891192, 37°C): 1 to 10 µg/mL (≈ 1.81 to 18.1 µM)
- MIC ([5]; MRSA strain 900048, 37°C): 1 to 10 µg/mL (≈ 1.81 to 18.1 µM)
- MIC ([5]; MRSA strain 900056, 37°C): 1 to 10 µg/mL (≈ 1.81 to 18.1 µM)
- MIC [3]: 1 to 10 µg/mL (≈ 1.81 to 18.1 µM)

SMILES: Cc1cc(Oc2ccc(C(F)(F)F)cc2Cl)ccc1OC(C)C(=O)C(C#N)c1ccc(Cl)c(Cl)c1 (stereo not shown) [compound 46]
- MIC [1]: 1 to 10 µg/mL (≈ 1.84 to 18.4 µM)
- MIC [4]: 10 to 100 µg/mL (≈ 18.4 to 184 µM)
- MIC [2]: ≤ 1 µg/mL
- MIC ([5]; MRSA strain 891179, 37°C): 1 to 10 µg/mL (≈ 1.84 to 18.4 µM)
- MIC ([5]; MRSA strain 891185, 37°C): 1 to 10 µg/mL (≈ 1.84 to 18.4 µM)
- MIC ([5]; MRSA strain 891187, 37°C): ≤ 1 µg/mL
- MIC ([5]; MRSA strain 891192, 37°C): 1 to 10 µg/mL (≈ 1.84 to 18.4 µM)
- MIC ([5]; MRSA strain 900048, 37°C): ≤ 1 µg/mL
- MIC ([5]; MRSA strain 900056, 37°C): ≤ 1 µg/mL
- MIC [3]: 10 to 100 µg/mL (≈ 18.4 to 184 µM)

SMILES: Cc1cc(Oc2ccc(C(F)(F)F)cc2Cl)ccc1OC(C)C(=O)C(C#N)c1cccc(Br)c1 (stereo not shown) [compound 47]
- MIC [1]: 1 to 10 µg/mL (≈ 1.81 to 18.1 µM)
- MIC [4]: 10 to 100 µg/mL (≈ 18.1 to 181 µM)
- MIC [2]: ≤ 1 µg/mL
- MIC ([5]; MRSA strain 891179, 37°C): 1 to 10 µg/mL (≈ 1.81 to 18.1 µM)
- MIC ([5]; MRSA strain 891185, 37°C): 1 to 10 µg/mL (≈ 1.81 to 18.1 µM)
- MIC ([5]; MRSA strain 891187, 37°C): 1 to 10 µg/mL (≈ 1.81 to 18.1 µM)
- MIC ([5]; MRSA strain 891192, 37°C): 1 to 10 µg/mL (≈ 1.81 to 18.1 µM)
- MIC ([5]; MRSA strain 900048, 37°C): 1 to 10 µg/mL (≈ 1.81 to 18.1 µM)
- MIC ([5]; MRSA strain 900056, 37°C): 1 to 10 µg/mL (≈ 1.81 to 18.1 µM)
- MIC [3]: 10 to 100 µg/mL (≈ 18.1 to 181 µM)

SMILES: CC(Oc1cc(Oc2ccc(C(F)(F)F)cc2Cl)cc(Oc2ccc(C(F)(F)F)cc2Cl)c1)C(=O)C(C#N)c1cccc(Br)c1 (stereo not shown) [compound 211]
- MIC [6]: 1 to 10 µg/mL (≈ 1.36 to 13.6 µM)
- MIC [7]: 1 to 10 µg/mL (≈ 1.36 to 13.6 µM)
- MIC [8]: 1 to 10 µg/mL (≈ 1.36 to 13.6 µM)
- MIC ([9]; MRSA strain 891179): 1 to 10 µg/mL (≈ 1.36 to 13.6 µM)
- MIC ([9]; MRSA strain 891185): 1 to 10 µg/mL (≈ 1.36 to 13.6 µM)
- MIC ([9]; MRSA strain 891187): 1 to 10 µg/mL (≈ 1.36 to 13.6 µM)
- MIC ([9]; MRSA strain 891192): 1 to 10 µg/mL (≈ 1.36 to 13.6 µM)
- MIC ([9]; MRSA strain 900048): 1 to 10 µg/mL (≈ 1.36 to 13.6 µM)
- MIC ([9]; MRSA strain 900056): 1 to 10 µg/mL (≈ 1.36 to 13.6 µM)
- MIC (Pasteurella from fish; Pasteurella piscicida KP94-02): 10 to 100 µg/mL (≈ 13.6 to 136 µM)
- IC (Pasteurella from fish; Pasteurella piscicida KP94-04): ≤100 (MIC-equivalent values obtained at the succesive 2-fold dilution of the sample are 100-10 µg/ml)
- IC (Pasteurella from fish; Pasteurella piscicida KP94-05): ≤100 (MIC-equivalent values obtained at the succesive 2-fold dilution of the sample are 100-10 µg/ml)
- IC (Pasteurella from fish; Pasteurella piscicida KP94-06): ≤100 (MIC-equivalent values obtained at the succesive 2-fold dilution of the sample are 100-10 µg/ml)
- IC (Enterococcus from fish; Enterococcus Seriolicida HI): ≤10 (10-1 µg/ml)
- IC (Enterococcus from fish; Enterococcus Seriolicida KG86050): ≤10 (10-1 µg/ml)
- IC (Enterococcus from fish; Enterococcus Seriolicida MS89060): ≤10 (10-1 µg/ml)
- IC (Enterococcus from fish; Enterococcus Seriolicida MS89064): ≤10 (10-1 µg/ml)
- IC (Enterococcus from fish; Enterococcus Seriolicida MS89066): ≤10 (10-1 µg/ml)
- IC (Enterococcus from fish; Enterococcus Seriolicida MS89068): ≤10 (10-1 µg/ml)
- IC (Enterococcus from fish; Enterococcus Seriolicida SE94-001): ≤10 (10-1 µg/ml)
- MIC (Enterococcus from fish; Enterococcus Seriolicida SE94-002): 1 to 10 µg/mL (≈ 1.36 to 13.6 µM)
- IC (Enterococcus from fish; Enterococcus Seriolicida SE94-003): ≤10 (10-1 µg/ml)
- IC (Enterococcus from fish; Enterococcus Seriolicida SE94-004): ≤10 (10-1 µg/ml)
- IC (Enterococcus from fish; Enterococcus Seriolicida SE94-005): ≤10 (10-1 µg/ml)
